# Test system: mouse peritoneal macrophages
# Assay: Mouse i.p. injection of LPS and ERG240, peritoneal macrophages analysed
# Assay type: in vivo, C57BL/6 mice
# Method: Figure 4 Bcat1 inhibition blocks itaconate production in vivo and polarizes peritoneal macrophages. Mouse peritoneal macrophages from vehicle (saline), LPS-injected (1.5 mg kg^−1) or LPS+ERG240 (500 mg kg^−1)–injected mice were isolated and pooled 24 h following i.p. injection (n=6 mice per group). Irg1 protein (a), mRNA (b) levels, as well as itaconate measurements by GC/MS (c) are shown. […] Peritoneal macrophages were collected 24 h following the LPS injection. n=3 mice/group. (d) Protein–protein interaction (PPI) network in 100 top (97 annotated) differentially expressed genes between LPS and LPS+ERG240 treated mouse peritoneal macrophages illustrated by STRING (high confidence score=0.7). The IFN-inducible GTPase cluster is shown within a dashed circle. (e) Distribution of the fold changes and the FDR-adjusted P values (−log10 (FDR)) for the comparison between LPS and LPS+ERG240 treated macrophages. The IFN- inducible GTPase genes, M1-like, M2-like and extracellular matrix transcripts are shown in blue. (f) Fragments per kilobase of transcript per Million mapped reads (FPKM) values for Nos2, Il6 are shown in vehicle, LPS and LPS+ERG240-treated peritoneal macrophages. (g) FPKM values for Ifit1, Ifit2, Ifit3, Gbp1, Gbp2, Gbp4, Gbp7, Mrc1, Klf4, Cd36, Fn1, Mmp9, Gsn and Spp1. FPKM=1 is shown as a dashed line to denote minimal expression levels. All transcripts analysed by RNA-seq (f,g) show significant FPKM upon ERG240 treatment when compared to LPS group (FDR<10^−73). Error bars are s.e.m. Significance was tested using one-way ANOVA. *P<0.05 by ANOVA.
# The procedure was performed by Washington Biotechnology Inc. (Baltimore, MD). […] Same dose of ERG240 was administered a second time, 8 h following the first injection of LPS. Peritoneal macrophages were harvested 24 h after the LPS injection and results from three groups (vehicle, LPS only, LPS+ERG240; n=6 mice in each group) were analysed in terms of IRG1 and itaconate level measurements.
# For itaconate, cells pellets containing 1.5 × 10^6 hMDMs were quenched with 400 μl of methanol, previously chilled at −20 °C. After addition of 400 μl of cold (4 °C) ultrapure water, cell pellets were vortexed briefly and then allowed to stand for 10 min on ice. Following addition of 400 μl of GC/MS grade dichloromethane, previously chilled at −20 °C, samples were vortexed again and centrifuged at 14,000g for 10 min at 4 °C. The aqueous layer of the samples was collected and lyophilized. Dried materials were dissolved in 40 μl of MOX solution, which is prepared by allowing 20 mg of methoxamine HCl (Sigma Aldrich) to dissolve in 500 μl pyridine for 30 min at room temperature. Metabolites dissolved in MOX were incubated at 45 °C for 60 min, derivatized by adding 60 μl of N-methyl-N-(trimethylsilyl) trifluoroacetamide (MSFTA, Mecherey-Nagel) and incubated at 45 °C for 30 min. After a brief centrifugation, derivatized metabolites were transferred into clean GC/MS vials and analysed for the presence of itaconic acid (itaconate) using a 7890A GC System (Agilent Technologies) equipped with an Agilent J&W DB-5ms column (30 m, 0.25 mm, 0.25 μm), connected to an 5975C Triple-Axis MS Detector (Agilent Technologies) and outfitted with an autosampler. The MS source was held at 230 °C and the quadrupole at 150 °C. The GC oven temperature was held at 50 °C for 5 min, increased to 240 °C at a rate of 10 °C min^−1, held at 240 °C for 5 min and increased to 300 °C at a rate of 10 °C min^−1. A volume of 1 μl was injected in the system in a 1:3 split mode. The amount of itaconate present in the sample was determined after peak integration. For citrate, the frozen cell pellets were re-suspended in ice-cold ethanol-phosphate buffer. Cells were lysed by three freeze-thaw cycles and sonication. Samples were centrifuged and the supernatant was used for further analysis. […]
# [1] = LPS 1.5 mg kg^−1 + ERG240 500 mg kg^−1 i.p., 24 h
# [2] = LPS+ERG240 vs LPS, peritoneal macrophages, 24 h
compound,measurement,setting,value
CC(=O)C(C)CCC(=O)O (stereo not drawn) [ERG240],"itaconate in peritoneal macrophages, sequential treatment","ERG240 administered 3 h after the first LPS injection, collected 24 h",equally decreased
same,"Il6, Gbp4 expression levels, sequential treatment","ERG240 administered following 3 hours of LPS, qRT-PCR",inhibitory effect
same,Irg1 mRNA and protein levels in peritoneal macrophages,[1],reduction
same,itaconate in peritoneal macrophages,[1],significant decrease
same,"IFN-inducible GTPase signature genes and M1-like markers (Nos2, Il6), RNA-seq",[2],down-regulated
same,"M2-like and extracellular matrix transcripts, RNA-seq",[2],up-regulated
